Assay results: patent publication US20200297820A1, “STIMULATION OF HUMAN MEIBOMIAN GLAND FUNCTION” (The Schepens Eye Research Institute, Inc., priority 2013, published 2020)
“Also recorded” adds a separate entry of the source. Like-named read-outs stand apart in the source and are kept apart here.

Tests used:
Format in all cases: cell-based
[1] = tested on: immortalized human meibomian gland epithelial cells; experiment: Cell proliferation, cells counted with a hemocytometer; settings: for cell proliferation: 10 nM IGF-1 or 10 μg/mL AZM, 13 days, P<0.0001; for cell number: 10 nM
Protocol: (§1) As an example of these experiments, immortalized human meibomian gland epithelial cells were cultured in the presence or absence of 10% fetal bovine serum. Cells were treated with an ethanol vehicle or azithromycin (10 μg/ml; Santa Cruz Biotechnology) for varying time periods. Cellular morphological appearance was recorded, cells were counted with a hemocytometer, and lipid accumulation was assessed by staining the cells with LipidTOX green neutral lipid stain (Invitrogen, Grand Island, N.Y.), according to reported methods. Staining fluorescent intensities were quantified by using ImageJ (http://rsbweb.nih.gov/ij/index.html). Statistical analyses were performed with Student's t-test (two-tailed, unpaired).
(§2) Immortalized human meibomian gland epithelial cells (IHMGECs; passages 20-22) were cultured in the presence or absence of 10% fetal bovine serum. Cells were treated with the ethanol vehicle or azithromycin (10 μg/mL) for varying periods. Cellular morphological appearance was recorded, cells were counted with a hemocytometer, and lipid accumulation was assessed by staining cells with LipidTOX green neutral lipid stain (Invitrogen Corp). Staining fluorescent intensities were quantified using ImageJ software (http://rsbweb.nih.gov/ij/index.html). Statistical analyses were performed with t test (2-tailed, unpaired).
Regarding cell proliferation assay, the human meibomian gland epithelial cells and LNCaP cells were cultured in 12-well plates in designated media and then exposed to IGF-1 or GH for defined periods. At experimental termination, cells were trypsinized and counted with a hemocytometer.
FIGS. 10a, 10b, and 10c illustrate the influence of IGF-1 on the proliferation of human meibomian gland epithelial cells. Cells were cultured (100,000 cells/well in 12-well plates, 3 wells per group) in basal, proliferating, and/or differentiating media and treated with IGF-I for 2 to 6 days. […] P values are for post hoc comparison compared with the control value. […] ANOVA indicates analysis of variance; EGF-BPE, epidermal growth factor-bovine pituitary extract; KSFM, keratinocyte serum-free medium. All comparisons are with control value. Whiskers mark SEM. aP<0.05 compared with the control value, post hoc test.

[2] = tested on: human meibomian gland epithelial cells; experiment: Immunoblot of SREBP-1 and cyclins B1, D1; settings: for amount of the precursor form of SREBP-1 protein: 10 nM, 6 days, differentiation media
Protocol: The disclosure turns now to sodium dodecyl sulfate-polyacrylamide gel, electrophoresis, and immunoblots. Cells were directly lysed in Laemmli buffer supplemented with 1% protease inhibitor cocktail (Sigma-Aldrich) and 5% β-mercaptoethanol (Sigma-Aldrich). Lysates were heated at 95° C. for 10 minutes, separated by sodium dodecyl sulfate-polyacrylamide gel electrophoresis on 10% Tris-glycine precast gels, and transferred to polyvinylidene difluoride membranes. Rabbit or mouse antibodies used were specific for phosphorylated Akt (p-Akt), pan-Akt, p-FoxO1, FoxO1, p-JAK2, JAK2, and β-actin; for p-ERK, ERK-2, STAT5, and the precursor form of SREBP-1; and for p-STAT5. Membranes were blocked with 5% bovine serum albumin in Tris-buffered saline containing 0.01% polysorbate 20. All primary antibodies were diluted to 1:1000 in blocking buffer except for p-Akt (1:4000), p-ERK (1:2000), ERK-2 (1:4000), SREBP-1 (1:200), and β-actin (1:10 000). Horseradish peroxidase-conjugated secondary antibodies were goat anti-rabbit IgG and Fc-specific goat anti-mouse IgG diluted to 1:5000. Proteins were visualized with enhanced chemiluminescent substrate or with ultrasensitive chemiluminescent substrate. Densitometry was performed with image-processing software.
Turning to the influence of IGF-1 and GH on SREBP-1 expression and lipid accumulation, the experiments examined whether IGF-1 stimulates SREBP-1 expression and lipid accumulation in human meibomian gland epithelial cells. Cells were cultured for 6 days in differentiation media with IGF-1 and then processed the cells for protein and histologic analysis.
FIGS. 11a, 11b, 11c, and 11d illustrate the effect of IGF-1 on sterol regulatory element-binding protein (SREBP-1) expression and lipid accumulation in human meibomian gland epithelial cells. Cells were exposed to IGF-1 or growth hormone (GH) for 6 days in differentiation media and then processed for the analysis of the precursor form of SREBP-1 protein. […] represents 4′,6-diamidino-2-phenylindole nuclear staining. The SREBP-1 densitometry, normalized to that of β-actin, and neutral lipid staining fluorescence intensity (6 field views per treatment condition) were quantified by using image-processing software. These experiments were repeated at least 3 times with similar results. ANOVA indicates analysis of variance; AU, arbitrary units. Whiskers represent SEM.
FIGS. 15a, 15b, 15c, and 15d illustrate the effect of IGF-1, AZM, and IFG-1+AZM combination on the expression of SREBP-1, cyclins B1, and D1. Cells were incubated with vehicle, 10 nM IGF-1, 10 μg/mL AZM, or IGF-1+AZM combination for 5 days. Cell lysates were evaluated on immunoblots for precursor and mature forms of SREBP-1, cyclins B1 and D1. FIG. 15a quantifies the protein band intensities using ImageJ. […] These experiments were repeated at least three times with similar results.

[3] = tested on: immortalized human meibomian gland epithelial cells; experiment: LipidTOX green neutral lipid staining (lipid accumulation); settings: for accumulation of lipid: days 1 to 7; for accumulation of neutral lipids: 10 nM, 6 days, differentiation media
Protocol: as §1, §2
Cell numbers were enumerated with a hemocytometer. Cellular lipid and lysosome accumulation were examined by staining cells with: Filipin III (a fluorometric probe for identifying unesterified cholesterol), LipidTOX green neutral lipid stain, and LysoTracker® Red DND-99 (a fluorescent technique designed for labeling acidic organelles such as lysosomes). Lysosomal lamellar bodies were identified by transmission electron microscopy. In brief, after culture and treatment on 24 mm polycarbonate membrane transwell inserts (0.4 μm pore size), cells were fixed in a solution of 2% formaldehyde+2.5% glutaraldehyde, in 0.08 M sodium cacodylate buffer, pH 7.4, post-fixed with 2% osmium tetroxide in 0.1 M sodium cacodylate buffer, and stained en bloc with 2% aqueousuranyl acetate. […] Cross sections (1 μM) were stained with 1% toluidine blue in 1% sodium tetraborate solution. Ultra-thin sections (60-90 nm) were imaged with a transmission electron microscope interfaced with a digital CCD camera. For biochemical assessments, cellular lipids were extracted with chloroform and methanol from samples with the same amount of protein. Lipids were then evaluated with high-performance thin-layer chromatography. With regard to the staining results, three Filipin, five LipidTox and four LysoTracker studies were conducted, and each experiment was performed in duplicate. Four random pictures were taken of each group, and four random areas were selected for the measurement of fluorescent intensities. The HPTLC experiments were performed in duplicate more than three times. Image data were quantified with ImageJ (http://rsbweb.nib.gov/ij/index.html). Electron microscopic analyses were performed in triplicate.
The experiment included green neutral lipid staining. Immortalized human meibomian gland epithelial cells were cultured in slides treated to facilitate cell growth in FBS-containing medium in the presence or absence of IGF-1, anti-IGF-1R, and/or GH. Media were replaced every 2 to 3 days for a total of 6 days, at which time cells were washed and fixed in 4% paraformaldehyde for 30 minutes. After additional washes, cells were stained with green neutral lipid stain in a humid chamber for 30 minutes. Coverslips were mounted on slides with an antifade reagent that contains 4′,6-diamidino-2-phenylindole nuclear stain and permitted to dry overnight before imaging with a microscope. Fluorescence intensity was quantified using image-processing software.

[4] = tested on: immortalized human meibomian gland epithelial cells; experiment: as above; settings: 10 nM each hormone, up to 13 days
[5] = 10 nM IGF-1 or 10 μg/mL AZM, 5 days
[6] = azithromycin 10 μg/ml vs vehicle

Row | Compound | cell proliferation [1] | proliferation ([1]; azithromycin 10 μg/ml, absence and presence of serum, days 1 to 7) | expression of mature SREBP-1 [2, 5] | expression of SREBP-1 protein ([2]; azithromycin 10 μg/ml) | fluorescence intensity of LipidTOX staining ([3]; 10 μg/mL, 13 days, two-way ANOVA P<0.0001) | accumulation of neutral lipids (LipidTOX) ([3]; 10 μg/ml, 5 days) | time to marked increase of number, size and staining intensity of intracellular lipid-containing vesicles [3, 6] [days] | accumulation of lipid [3, 6] | accumulation of lipid ([3]; azithromycin 10 μg/ml vs vehicle, listed as azithromycin) | accumulation of lipid [4] | proliferation ([1]; any of the media, doses 0.1 to 100 nM) | amount of the precursor form of SREBP-1 protein [2] | accumulation of neutral lipids [3] | proliferation [1] | cell number ([1]; 10% FBS-containing medium, 2 to 6 days) | cell number ([1]; keratinocyte serum-free medium alone or with EGF-BPE, 2 days) | expression of pre-SREBP-1 ([2]; 10 nM IGF-1, 5 days) | expression of cyclin B1 [2, 5] | expression of SREBP-1 protein ([2]; IGF-1 10 nM, alone or with GH and/or DHT)
1 | CC[C@H]1OC(=O)[C@H](C)[C@@H](O[C@H]2C[C@@](C)(OC)[C@@H](O)[C@H](C)O2)[C@H](C)[C@@H](O[C@@H]2O[C@H](C)C[C@H](N(C)C)[C@H]2O)[C@](C)(O)C[C@@H](C)CN(C)[C@H](C)[C@@H](O)[C@]1(C)O [Azithromycin] | significant but opposite effect | generally reduced the proliferation | significant effect | increased expression | significant effect | significantly stimulates the accumulation | ≤ 3 | striking, time-dependent accumulation of lipid | time-dependent accumulation of lipids; also recorded: striking, time-dependent accumulation of lipid | – | – | – | – | – | – | – | – | – | –
2 | GH: human growth hormone | – | – | – | – | – | – | – | – | – | significant accumulation of lipid | no influence on the proliferation | not duplicated | not duplicated | – | – | – | – | – | –
3 | IGF-1: recombinant human insulin-like growth factor 1 | significant but opposite effect | – | significantly affected | – | – | – | – | – | – | significant accumulation of lipid | – | rise in the amount of the precursor form of SREBP-1 protein | increase in the accumulation of neutral lipids | increases the proliferation | increase in cell number | not under basal conditions | significantly affected | significantly affected | significant increase in the expression of SREBP-1 protein
